Laboratory results from paper PMC7371863, “Intracellular interplay between cholecystokinin and leptin signalling for satiety control in rats” (Scientific Reports, 2020).

Key:
[1] = system: CCK-1 and CCK-2 receptors (C6 cells); assay: Ca2+ imaging (Fura-2), CCK-8s response in C6 cells; type: cell-based, rat; conditions: CCK-8s 10 nM; n = 103/five dishes; Fura-2, 34°C, BSS pH 7.4
Protocol: (§1) Rat C6 glioma cells were cultured in Dulbecco’s Modified Eagle Medium/F12 (DMEM/F12) supplemented with 10% FBS, sodium bicarbonate (1.2 g/L), and 1% penicillin/streptomycin antibiotics at 37 °C in 5% CO2. The full-length mouse leptin receptor (ObRb) in pcDNA3.1 vector was kindly provided by Dr. Christian Bjørbaek (BIDMC, Harvard Medical School, Boston, MA, USA) and transfected using Lipofectamine 2000. Subsequently, the cells were cultured in medium containing 500 μg/mL G418 for cell selection.
(§2) C6 cells plated on 35 mm plastic dishes were gently rinsed with buffered salt solution (BSS) consisting of 130 mM NaCl, 5.4 mM KCl, 2 mM CaCl2, 1 mM MgCl2, 5.5 mM D-glucose, and 10 mM HEPES/NaOH (pH 7.4), and incubated in BSS supplemented with 6 µM Fura-2 AM (Dojindo Laboratories, Kumamoto, Japan) for 30 min in a CO2 incubator. Prior to photometry, the cells were rinsed again with BSS, incubated at 37°C for 15 min, and then continuously perfused with BSS at 34°C at a flow rate of 3 mL/min. Fluorescence images were obtained using an upright microscope (Axioplan2; Carl Zeiss, Thornwood, NY, USA) with a water-immersion objective (Achroplan×20 NA0.5w; Carl Zeiss). The wavelength of the excitation UV light (340 nm or 380 nm pulse; 250 msec) was switched using a filter wheel (Lambda 10-2; Sutter Instruments, Novato, CA, USA). […] The background fluorescence was also subtracted using the software. […]

[2] = system: primary cultures of rat nodose ganglion neurons; conditions: CCK-8s treatment, co-stimulation with leptin; cited from earlier work
Description: An important observation in C6 models, other than intracellular Ca^2+ signalling, is the reduction in leptin-induced nuclear pSTAT3 accumulation by co-stimulation with CCK-8s. The level of pSTAT3 following co-stimulation with CCK-8s and leptin has been analyzed in primary cultures of rat nodose ganglion neurons[53],[54].

[3] = system: meal frequency / meal size; conditions: leptin; cited from earlier work
Description: Although CCK and leptin have been commonly described as satiety controlling peptides, their differential roles have also been highlighted. […] Among the wide variety of intracellular signalling machineries linked to ObRb, it is still uncertain which pathway(s) is/are linked to what type of satiety controls. pSTAT3-ir is used as a genera ...

[4] = system: oxytocin neurons in the hypothalamic paraventricular nucleus; conditions: leptin administration; cited from earlier work
Description: (§3) Also, the effect of CCK on satiety control is attenuated in Zucker fa/fa rats lacking functional leptin receptors. In addition, other evidence implicated that leptin-mediated satiety-controlling systems may strongly interact with CCK systems[18],[50]–[54]. For example, c-Fos expression in oxytocin neurons in the hypothalamic paraventricular nucleus is elevated by leptin administration, and these neurons have axons tha ...

[5] = system: nucleus tractus solitarius; conditions: fourth ventricular injection of leptin; cited from earlier work
Description: as §3

[6] = system: megakaryoblast cells; conditions: co-stimulation with leptin; cited from earlier work
Description: It was previously shown that ADP-induced Ca^2+ mobilization, presumably via Gq-coupled P2Y receptor, was enhanced by co-stimulation with leptin in megakaryoblast cells. Since leptin could phosphorylate the tyrosine residue of Gqα protein by JAK2 (i.e., in AG490-dependent manner) in these cells, leptin could facilitate CCK receptor signalling similarly in C6 cells. […] Thus, further downstream signalling might also involve the activation of p ...

[7] = system: C6-ObRb cells (mouse leptin receptor ObRb); assay: Ca2+ imaging (Fura-2) in C6 cells overexpressing mouse ObRb (C6-ObRb); type: cell-based, rat C6 cells
Protocol: as §1, §2

[8] = system: cerebellar granule cell cultures; conditions: via MAPK pathways; cited from earlier work
Description: (§4) A product of the obese gene, leptin, is a peptide hormone secreted from white adipocyte tissue, also known as a satiety-controller[31]–[33]. […] Splice variants (ObRa–ObRe) have been identified for leptin receptors and only the full-length isoform (ObRb) contains the intracellular motifs required for the initiation of intracellular signalling. ObRb is a single-transmembrane receptor that interacts with diverse signalling molecules[ ...

[9] = system: hypothalamic astrocyte cultures; conditions: cited from earlier work
Description: as §4

[10] = system: dissociated ARC neurons; conditions: cited from earlier work
Description: as §4

[11] = system: primary cultures of ventromedial hypothalamus (VMN and ARC neurons); conditions: depending on cell populations; cited from earlier work
Description: as §4

[12] = system: porcine adrenal medullary chromaffin cells; conditions: cited from earlier work
[13] = system: ARC cells; type: cell-based, rat; conditions: leptin 500 nM; 12 slices; 0.5 µM tetrodotoxin; 34 °C; mean with standard error
[14] = system: wild-type C6 cells; assay: Ca2+ imaging (Fura-2), leptin and CCK-8s signalling interaction in wild-type C6 cells; type: cell-based, rat; conditions: leptin 100 nM
Protocol: as §1
C6 cells plated on 35 mm plastic dishes were gently rinsed with buffered salt solution (BSS) consisting of 130 mM NaCl, 5.4 mM KCl, 2 mM CaCl2, 1 mM MgCl2, 5.5 mM D-glucose, and 10 mM HEPES/NaOH (pH 7.4), and incubated in BSS supplemented with 6 µM Fura-2 AM (Dojindo Laboratories, Kumamoto, Japan) for 30 min in a CO2 incubator. Prior to photometry, the cells were rinsed again with BSS, incubated at 37°C for 15 min, and then continuously perfused with BSS at 34°C at a flow rate of 3 mL/min. Fluorescence images were obtained using an upright microscope (Axioplan2; Carl Zeiss, Thornwood, NY, USA) with a water-immersion objective (Achroplan×20 NA0.5w; Carl Zeiss). The wavelength of the excitation UV light (340 nm or 380 nm pulse; 250 msec) was switched using a filter wheel (Lambda 10-2; Sutter Instruments, Novato, CA, USA). The UV light was generated by a full spectrum 300W Xenon bulb (Lambda LS; Sutter Instruments), conducted to the microscope through a liquid light guide. The pair of fluorescent images was processed using a band-pass filter (485–515 nm) and exposed to a multiple format cooled CCD camera (CoolSnap-fx; Photometrics, Tucson, AZ, USA) at 6-sec intervals. The filter wheel and the CCD camera were controlled using digital imaging software (MetaFluor ver. 6.2; Japan Molecular Devices, Tokyo, Japan). The background fluorescence was also subtracted using the software.
During image acquisition, leptin (PeproTech, Rocky Hill, NJ, USA), CCK-4 (Peptide Institute, Inc., Osaka, Japan), CCK-8s (Sigma-Aldrich, St. Louis, MO, USA), AG490 (Calbiochem, San Diego, CA), LY294002 (Calbiochem), LY225910 (R&D Systems, Minneapolis, MN, USA), LGM (LKT Laboratories Inc., St. Paul, MN, USA), and ATP (Sigma-Aldrich) were applied by switching the perfusate. The magnitude of Ca^2+ responses was determined by peak area analysis using Origin 5.0 software (OriginLab, Northampton, MA, USA).

| Substance | C6 cells displaying Ca2+ transients on re-stimulation [1] [%] | total pSTAT3 [2] | meal size and meal frequency [3] | c-Fos expression in oxytocin neurons [4] | CCK-induced satiety response [5] | c-Fos expression in the nucleus tractus solitarius [5] | ADP-induced Ca2+ mobilization [6] | magnitude of Ca2+ response by co-stimulation, C6-ObRb versus wild-type ([7]; leptin 100 nM and CCK-8s 10 nM, n = 84/four dishes, Student's t-test) | Ca2+ transients by leptin treatment alone, C6-ObRb ([7]; leptin 100 nM, 5 min or 500 nM, 5 min, n = 190/11 dishes) | action on N-methyl-D-aspartate-induced Ca2+ influx [8] | cytosolic Ca2+ after leptin stimulation [9] | ghrelin-induced Ca2+ elevation [10] | intrinsic Ca2+ oscillations [11] | cytosolic Ca2+ after leptin stimulation [12] | cells with monophasic Ca2+ increase, ARC [13] | Ca2+ transients by leptin treatment alone, wild-type C6 cells ([14]; 5 min or 500 nM, 5 min, n = 185/eight dishes) | amplification in the magnitude of CCK-8s-induced Ca2+ mobilization ([14]; 5 min pre-treatment, CCK-8s 10 nM, n = 115/five dishes) |
| --- | --- | --- | --- | --- | --- | --- | --- | --- | --- | --- | --- | --- | --- | --- | --- | --- | --- |
| CCK-8s [reference compound] | 32 | significant increase in pSTAT3 |  |  |  |  |  |  |  |  |  |  |  |  |  |  |  |
| leptin: peptide hormone secreted from white adipocyte tissue, product of the obese gene; PeproTech Cat#450-31 |  |  | reduces meal size but does not alter meal frequency | elevated | enhanced the CCK-induced satiety response | failed to increase c-Fos expression | enhanced | not significantly different from that in wild-type C6 cells | failed to evoke Ca^2+ transients | excitatory actions | monophasic cytosolic Ca^2+ elevation | inhibited | increased or decreased intrinsic Ca^2+ oscillations | cytosolic Ca^2+ increase | 25.9% ± 4.5 | failed to evoke Ca^2+ transients | ~ 5 times |
